Experimental data published in patent US20130178469A1, “NOVEL ANTIVIRAL AGENTS” (SHANGHAI INSTITUTE OF ORGANIC CHEMISTRY (SIOC), priority 2010, published 2013).

What follows are compounds tested on HIV (assay: Inhibition of HIV Replication (NL4-3), extracellular p24 in HuT-78 cells). Settings: Human immunodeficiency virus 1, NL43, HuT78.
Format: cell-based
Protocol: HuT-78 cells are seeded into 96 well microtitre plates at 50,000 cells per […] per well in RF-10 containing 2 μg/mL polybrene (RF-10/2). Compounds are prepared to 4× final concentration in RF-10/2, and […] added to cells. Virus (40 μL in RF-10/2 containing 1600 pfu) is added to each well or […] RF-10/2 for negative controls and for assaying compound cytotoxicity. After 24 hrs, an additional 90 μL of media or media containing 1× compound is added to each well. At 4 days post infection, 100 μL of media is removed from each well and replaced with 100 μl of fresh media with or without compound. Forty eight hours later supernatants are harvested and levels of extracellular p24 determined. Supernatants are diluted 1 in 10,000 and p24 levels assayed using the Vironostika p24 assay kit. EC50 is calculated as the concentration required to inhibit HIV p24 production to 50% that of no drug controls.
In the tables below, this assay type is referred to as NL4-3.

`Cc1ccc2nc(C(=O)NCc3ccc(F)cc3)c(O)c(=O)n2c1` [drawing 183, reference compound] gave an EC50 of 100 to 1000 nM.

These compounds were tested on HIV-1 (assay: Luciferase Assay with single-round reporter virus (NLXLuc or HIV-Luc)). Settings: Human immunodeficiency virus 1.
Format: cell-based
Description: Infectivity assays using reporter viruses derived from lentiviral vectors capable of a single round of infection were used to determine the activity (EC50) of compounds. The DNA used to generate viruses for infection was the full-length HIV-1 genome which had been envelope-deleted. In addition, a reporter gene (the firefly luciferase gene from Photinus pyralis) was cloned into the nefregion of the HIV backbone for ease of assay readout. […]. Culture supernatants containing VSV-G pseudotyped virions were harvested 64 h post transfection, clarified by centrifugation to remove cell debris, and frozen at −70° C. until use.
293FT cells were plated out at 12000 cells per well in CellView 96-well cell culture plates (Invitrogen) 16 h prior to compound addition. Compounds were preincubated with cells for 4 h at 37° C. prior to the addition of virus sufficient to generate approximately 10000 Luciferase light units (as measured by the Victor Wallace luminometer) upon assaying using the Bright-Glo™ reagent (Promega) according to the manufacturer's instructions at 48 h post infection.
In the tables below, this assay is referred to as NLXLuc or HIV-Luc.

First: CC(C)N1CCN(c2cc(N3CCN(C)CC3)cn3c(=O)c(O)c(C(=O)NCc4ccc(F)cc4)nc23)C1=O [Example 17.4, 3-Hydroxy-9-(3-isopropyl-2-oxo-imidazolidin-1-yl)-7-(4-methyl-piperazin-1-yl)-4-oxo-4H-pyrido[1,2-a]pyrimidine-2-carboxylic acid 4-fluoro-benzylamide]
Second: CC(C)N1CCN(c2cc(N3CCN(C)C3=O)c3nc(C(=O)NCc4ccc(F)cc4)c(O)c(=O)n3c2)CC1 [Example 32.4, 3-Hydroxy-7-(4-isopropyl-piperazin-1-yl)-9-(3-methyl-2-oxo-imidazolidin-1-yl)-4-oxo-4H-pyrido[1,2-a]pyrimidine-2-carboxylic acid 4-fluoro-benzylamide]
The EC50 of the first is higher: 20 to 100 nM for the first, 10 to 20 nM for the second. The second is the more potent here.

Compared with `Cc1ccc2nc(C(=O)NCc3ccc(Cl)c(Cl)c3)c(O)c(=O)n2c1` [drawing 186, reference compound], `Cc1ccc2nc(C(=O)NCc3ccc(F)cc3)c(O)c(=O)n2c1` [drawing 177, reference compound] is higher in EC50: 100 to 1000 nM for the first, greater than 1000 nM for the second. The first is the more potent here.

Compared with `CN1CCN(c2cc(N3CCCC3=O)c3nc(C(=O)NCc4ccc(F)cc4)c(O)c(=O)n3c2)CC1` [Example 2.4, 3-Hydroxy-7-(4-methyl-piperazin-1-yl)-4-oxo-9-(2-oxo-pyrrolidin-1-yl)-4H-pyrido[1,2-a]pyrimidine-2-carboxylic acid 4-fluoro-benzylamide], `CN1CCN(c2cc(N3CCCCC3=O)c3nc(C(=O)NCc4ccc(F)cc4)c(O)c(=O)n3c2)CC1` [Example 18.4, 3-Hydroxy-7-(4-methyl-piperazin-1-yl)-4-oxo-9-(2-oxo-piperidin-1-yl)-4H-pyrido[1,2-a]pyrimidine-2-carboxylic acid 4-fluoro-benzylamide] is lower in EC50: 100 to 1000 nM for the first, 20 to 100 nM for the second. The second is the more potent here.

First: CN(C)c1cc(N2CCNCC2=O)c2nc(C(=O)NCc3ccc(F)cc3)c(O)c(=O)n2c1 [Example 9.3, 7-(dimethylamino)-N-(4-fluorobenzyl)-3-hydroxy-4-oxo-9-(2-oxopiperazin-1-yl)-4H-pyrido[1,2-a]pyrimidine-2-carboxamide]
Second: CN(CC1CC1)c1cc(N2CCNCC2=O)c2nc(C(=O)NCc3ccc(F)cc3)c(O)c(=O)n2c1 [Example 13.4, 7-(Cyclopropylmethyl-methyl-amino)-3-hydroxy-4-oxo-9-(2-oxo-piperazin-1-yl)-4H-pyrido[1,2-a]pyrimidine-2-carboxylic acid 4-fluoro-benzylamide]
The EC50 of the first is higher: 100 to 1000 nM for the first, 20 to 100 nM for the second.

First: CN1CCN(c2cc(N3CCCOC3=O)c3nc(C(=O)NCc4ccc(F)cc4)c(O)c(=O)n3c2)CC1 [Example 1.4, N-(4-fluorobenzyl)-3-hydroxy-7-(4-methylpiperazin-1-yl)-4-oxo-9-(2-oxo-1,3-oxazinan-3-yl)-4H-pyrido[1,2-a]pyrimidine-2-carboxamide]
Second: CN1CCN(c2cc(N3CCOC3=O)c3nc(C(=O)NCc4ccc(F)cc4)c(O)c(=O)n3c2)CC1 [Example 20.4, 3-Hydroxy-7-(4-methyl-piperazin-1-yl)-4-oxo-9-(2-oxo-oxazolidin-3-yl)-4H-pyrido[1,2-a]pyrimidine-2-carboxylic acid 4-fluoro-benzylamide]
The EC50 of the first is higher: 100 to 1000 nM for the first, 20 to 100 nM for the second. The second is the more potent here.

Compared with `O=C(NCc1ccc(F)cc1)c1nc2c(N3CCNCC3=O)cc(N3CCCC3)cn2c(=O)c1O` [Example 4.4, 3-Hydroxy-4-oxo-9-(2-oxo-piperazin-1-yl)-7-pyrrolidin-1-yl-4H-pyrido[1,2-a]pyrimidine-2-carboxylic acid 4-fluoro-benzylamide], `O=C(NCc1ccc(F)cc1)c1nc2c(N3CCNCC3=O)cc(N3CCCCC3)cn2c(=O)c1O` [Example 12.3, 3-Hydroxy-4-oxo-9-(2-oxo-piperazin-1-yl)-7-piperidin-1-yl-4H-pyrido[1,2-a]pyrimidine-2-carboxylic acid 4-fluoro-benzylamide] is lower in EC50: 100 to 1000 nM for the first, 20 to 100 nM for the second.

First: CN(C)c1cc(N2CCCOC2=O)c2nc(C(=O)NCc3ccc(F)cc3)c(O)c(=O)n2c1 [Example 8.3, 7-(dimethylamino)-N-(4-fluorobenzyl)-3-hydroxy-4-oxo-9-(2-oxo-1,3-oxazinan-3-yl)-4H-pyrido[1,2-a]pyrimidine-2-carboxamide]
Second: CN(C)c1cc(N2CCOC2=O)c2nc(C(=O)NCc3ccc(F)cc3)c(O)c(=O)n2c1 [Example 7.3, 7-(dimethylamino)-N-(4-fluorobenzyl)-3-hydroxy-4-oxo-9-(2-oxooxazolidin-3-yl)-4H-pyrido[1,2-a]pyrimidine-2-carboxamide]
The EC50 of the first is lower: 20 to 100 nM for the first, 100 to 1000 nM for the second. The first is the more potent here.

Compared with `O=C(NCc1ccc(F)cc1)c1nc2c(N3CCOCC3)cc(N3CCOCC3)cn2c(=O)c1O` [Example 21.5, N-(4-fluorobenzyl)-3-hydroxy-7,9-dimorpholino-4-oxo-4H-pyrido[1,2-a]pyrimidine-2-carboxamide], `CN1CCN(c2cc(N3CCOCC3)cn3c(=O)c(O)c(C(=O)NCc4ccc(F)cc4)nc23)C1=O` [Example 29.2, N-(4-fluorobenzyl)-3-hydroxy-9-(3-methyl-2-oxoimidazolidin-1-yl)-7-morpholino-4-oxo-4H-pyrido[1,2-a]pyrimidine-2-carboxamide] is lower in EC50: 100 to 1000 nM for the first, 20 to 100 nM for the second.

`O=C(NCc1ccc(F)cc1)c1nc2c(N3CCNCC3=O)cc(N3CCNCC3)cn2c(=O)c1O` [Example 15.3, 3-Hydroxy-4-oxo-9-(2-oxo-piperazin-1-yl)-7-piperazin-1-yl-4H-pyrido[1,2-a]pyrimidine-2-carboxylic acid 4-fluoro-benzylamide] and `O=C(NCc1ccc(F)cc1)c1nc2c(N3CCNCC3=O)cc(N3CCOCC3)cn2c(=O)c1O` [Example 10.3, N-(4-fluorobenzyl)-3-hydroxy-7-morpholino-4-oxo-9-(2-oxopiperazin-1-yl)-4H-pyrido[1,2-a]pyrimidine-2-carboxamide] fall in the same range of EC50: 100 to 1000 nM for the first, 100 to 1000 nM for the second.

Compared with `CN1CCN(c2cc(N3CCOCC3)cn3c(=O)c(O)c(C(=O)NCc4ccc(F)cc4)nc23)C(=O)C1` [Example 16.4, 3-Hydroxy-9-(4-methyl-2-oxo-piperazin-1-yl)-7-morpholin-4-yl-4-oxo-4H-pyrido[1,2-a]pyrimidine-2-carboxylic acid 4-fluoro-benzylamide], `CN1CCN(c2cc(N3CCNCC3=O)c3nc(C(=O)NCc4ccc(F)cc4)c(O)c(=O)n3c2)CC1` [Example 14.3, 3-Hydroxy-7-(4-methyl-piperazin-1-yl)-4-oxo-9-(2-oxo-piperazin-1-yl)-4H-pyrido[1,2-a]pyrimidine-2-carboxylic acid 4-fluoro-benzylamide] is higher in EC50: 20 to 100 nM for the first, 100 to 1000 nM for the second. The first is the more potent here.

First: O=C(NCc1ccc(F)cc1)c1nc2c(N3CCOC3=O)cc(N3CCNCC3)cn2c(=O)c1O [Example 19.4, 3-Hydroxy-4-oxo-9-(2-oxo-oxazolidin-3-yl)-7-piperazin-1-yl-4H-pyrido[1,2-a]pyrimidine-2-carboxylic acid 4-fluoro-benzylamide]
Second: O=C(NCc1ccc(F)cc1)c1nc2c(N3CCCS3(=O)=O)cc(N3CCNCC3)cn2c(=O)c1O [Example 33, 3-Hydroxy-4-oxo-9-(1,3-propanesultam)-7-piperazin-1-yl-4H-pyrido[1,2-a]pyrimidine-2-carboxylic acid 4-fluoro-benzylamide]
The EC50 of the first is higher: greater than 1000 nM for the first, 100 to 1000 nM for the second. The second is the more potent here.

`CC1COCCN1c1cc(N2CCNCC2=O)c2nc(C(=O)NCc3ccc(F)cc3)c(O)c(=O)n2c1` (stereo not shown) [Example 11.3, N-(4-fluorobenzyl)-3-hydroxy-7-(3-methylmorpholino)-4-oxo-9-(2-oxopiperazin-1-yl)-4H-pyrido[1,2-a]pyrimidine-2-carboxamide] and `CN1CCN(c2cc(N(C)C)cn3c(=O)c(O)c(C(=O)NCc4ccc(F)cc4)nc23)C1=O` [Example 31.3, 7-Dimethylamino-3-hydroxy-9-(3-methyl-2-oxo-imidazolidin-1-yl)-4-oxo-4H-pyrido[1,2-a]pyrimidine-2-carboxylic acid 4-fluoro-benzylamide] fall in the same range of EC50: 100 to 1000 nM for the first, 100 to 1000 nM for the second.

First: CN1CCN(c2cc(N3CCOCC3)cn3c(=O)c(O)c(C(=O)NCc4ccc(Cl)c(Cl)c4)nc23)C1=O [Example 30, N-(3,4-dichlorobenzyl)-3-hydroxy-9-(3-methyl-2-oxoimidazolidin-1-yl)-7-morpholino-4-oxo-4H-pyrido[1,2-a]pyrimidine-2-carboxamide]
Second: CN1CCN(c2cc(N(C)S(C)(=O)=O)c3nc(C(=O)NCc4ccc(F)cc4)c(O)c(=O)n3c2)CC1 [Example 5.4, 3-Hydroxy-9-(methanesulfonyl-methyl-amino)-7-(4-methyl-piperazin-1-yl)-4-oxo-4H-pyrido[1,2-a]pyrimidine-2-carboxylic acid 4-fluoro-benzylamide]
The EC50 of the first is higher: 20 to 100 nM for the first, 10 to 20 nM for the second. The second is the more potent here.

In the case of `CC(C)N1CCN(c2cc(N(C)S(C)(=O)=O)c3nc(C(=O)NCc4ccc(F)cc4)c(O)c(=O)n3c2)CC1` [Example 6.3, Trifluoro-acetate4-[2-(4-fluoro-benzylcarbamoyl)-3-hydroxy-9-(methanesulfonyl-methyl-amino)-4-oxo-4H-pyrido[1,2-a]pyrimidin-7-yl]-1-isopropyl-piperazin-1-ium], the EC50 is reported as 10 to 20 nM.
